In PubChem BioAssay (NCI):
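Cultured in 96-well plates, cells were exposed to test compound for 48 hours across five concentrations. The concentration for full growth arrest is given as TGI.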

Columns and labels:
Assay in all cases: growth of human tumour cells (NCI), 48 h
[1] = test system: SF-539 CNS
[2] = test system: T-47D breast
[3] = test system: HOP-62 NSCLC
[4] = test system: CAKI-1 renal
[5] = test system: OVCAR-4 ovarian
[6] = test system: HS 578T breast
[7] = test system: HCC-2998 colon
[8] = test system: RXF 393 renal
[9] = test system: SF-268 CNS
[10] = test system: RPMI-8226 leukemia
[11] = test system: SN12C renal
[12] = test system: OVCAR-5 ovarian
[13] = test system: HOP-92 NSCLC
[14] = test system: OVCAR-3 ovarian
[15] = test system: HT29 colon

Compound | TGI [1] [µM] | TGI [2] [µM] | TGI [3] [µM] | TGI [4] [µM] | TGI [5] [µM] | TGI [6] [µM] | TGI [7] [µM] | TGI [8] [µM] | TGI [9] [µM] | TGI [10] [µM] | TGI [11] [µM] | TGI [12] [µM] | TGI [13] [µM] | TGI [14] [µM] | TGI [15] [µM]
CC(C)n1c2c([n+](C)c1/C=C/c1ccccc1)C(=O)c1ccccc1C2=O | 0.363 | 0.61 | 1.61 | 12.4 | 1 | 7.8 | 2.06 | 2.19 | 1.01 | 8.96 | 0.169 | 1.28 | 1.48 | 0.0289 | 2.18
COC(=O)C1(Cc2ccccc2)Cc2ccc3c(c2C1=O)CCC3 (stereo not given) | > 76.9 | > 100 | > 100 | > 100 | > 92.8 | > 84.3 | > 100 | > 69.5 | > 100 | > 90.3 | > 100 | > 100 | > 73 | > 100 | > 89.6
Cn1c2ccccc2c(=NNc2ccccc2C(=O)O)c2ccccc21 | 36.1 | 88.3 | 75.4 | 91.2 | 44.9 | 83.1 | 46.8 | 33.3 | 56.3 | 53.3 | 83.1 | 85 | 67.6 | 28.5 | 38.1
CCOC(=O)CCC(NC(=O)c1ccc(Nc2nc3ccccc3nc2-c2cccs2)cc1)C(=O)OCC (stereo not given) | > 100 | > 100 | > 100 | > 100 | > 100 | > 100 | > 100 | > 100 | > 100 | > 100 | > 100 | > 100 | > 100 | > 100 | > 100
NCCCN1CCN(CC(=O)O)CCN(CCCN)CCN(CC(=O)O)CC1 | > 100 | > 100 | > 100 | > 100 | > 100 | > 100 | > 100 | > 100 | > 100 | > 100 | > 100 | > 93.8 | > 100 | > 100 | > 100
O=C(O)CC/C(=N\Nc1nsc2ccccc12)c1ccc(Cl)cc1 | > 89.8 | > 100 | > 63.5 | 52.2 | > 80.2 | > 100 | 36.8 | > 53.7 | > 89.3 | 45.9 | 57.7 | > 100 | > 100 | 47.2 | > 78.1
O=C1C=C(NCCc2cc(Br)c(O)c(Br)c2)C(=O)c2ncccc21 | 2.52 | 43.4 | 3.59 | 17.5 | 11.3 | 8.77 | 18.5 | 13.4 | 21.9 | 18.3 | 2.95 | 3.95 | 25.6 | 6.88 | 7.36
CC(CO)C1=CC(C#CCOCc2ccccc2)N(C(=O)Oc2ccccc2)c2ccccc21 (stereo not given) | > 100 | > 100 | > 100 | 76.1 | 20.7 | 53.5 | > 100 | 23 | > 100 | > 100 | 68.6 | > 100 | 61.7 | 88.2 | > 100
CN(C)c1nc(-c2ccccc2)c(C(=O)c2c[nH]c3ccccc23)s1 | > 100 | > 100 | > 100 | > 100 | > 100 | > 28.3 | > 70.6 | > 91.5 | > 100 | 32 | > 100 | > 100 | > 33.2 | > 94.4 | > 100
O=c1[nH]nc(Cc2ccc(Cl)cc2)n1/N=C\CC/C=N\n1c(Cc2ccc(Cl)cc2)n[nH]c1=O | 40.6 | > 100 | 27.5 | > 100 | > 100 | 36.5 | > 100 | 76.1 | 37.9 | > 100 | > 100 | > 100 | > 100 | > 100 | > 100
ClC1=C(Cc2ccccc2)Cc2ccc3c(c21)CCC3 | > 100 | 50.4 | > 100 | 69.7 | > 100 | 84.3 | 40.1 | 45 | > 100 | 65.3 | > 100 | > 100 | > 100 | 87.2 | 50.9
Cc1cc(C)c2c(=O)n(CN3CCC(O)(c4ccccc4)CC3)sc2n1 | 58.3 | > 100 | > 100 | > 100 | 81.4 | > 100 | 57.3 | 37.7 | > 100 | > 100 | 86.2 | 68.7 | > 100 | > 100 | 98.9
O=c1oc2ccc3ccccc3c2cc1-c1nc2ccccc2o1 | 29.3 | 39.7 | > 52.1 | 40.8 | 90.4 | > 68.8 | > 100 | 34.4 | 48.4 | > 63.4 | > 64.1 | > 100 | 39.3 | 32.4 | 48.4
CCOC(=O)c1c(-c2ccc(OC)cc2)c(C#N)c(=S)n(C2OC(CO)C(O)C(O)C2O)c1-c1ccccc1 (stereo not given) | > 100 | > 100 | 80.7 | > 100 | > 100 | 70 | > 100 | 75.7 | > 100 | > 100 | > 100 | > 100 | 32.8 | 73 | > 100
CC(=O)OCC1OC(n2c(N)c(C#N)c(-c3ccc(C)cc3)c(C#N)c2=S)C(OC(C)=O)C(OC(C)=O)C1OC(C)=O (stereo not given) | 19.2 | 47.8 | 47.2 | > 100 | > 100 | 38.7 | 34 | 32.7 | 28.5 | 80 | 41 | > 100 | 28.5 | > 100 | 39.1
